In brackets after ≈: the same amount, converted by molar mass. Several values for one entry are separate records, joined by “and”; a condition that tells them apart may be missing. Equal values may be shown once.
Key:
[1] = tested on: Plasmodium falciparum; experiment: In vitro antimalarial activity against Plasmodium falciparum W-2 (Indochina); assay type: functional, organism-based
[2] = tested on: Plasmodium falciparum; experiment: In vitro antimalarial activity against Plasmodium falciparum D6 Sierra Leone; assay type: functional, organism-based
[3] = tested on: Mus musculus; experiment: Antimalarial activity against Plasmodium berghei in mice (Mus musculus) expressed as number of cures was determined at a dose of 640 mg/kg; assay type: functional
[4] = tested on: Mus musculus; experiment: Antimalarial activity against Plasmodium berghei in mice (Mus musculus) expressed as number of cures was determined at a dose of 160 mg/kg; assay type: functional
[5] = tested on: Mus musculus; experiment: Antimalarial activity against Plasmodium berghei in mice (Mus musculus) expressed as number of cures was determined at a dose of 40 mg/kg; assay type: functional

Compound | IC50 [1] | IC50 [2] | No. of cures [3] | No. of cures [4] | No. of cures [5] | No. of cures ([5]; 40 mg/kg)
C[C@H]1[C@@H](OCCCC(=O)O)O[C@@H]2O[C@]3(C)CC[C@H]4[C@H](C)CC[C@@H]1[C@@]24OO3 | 8.04 ng/mL (≈ 21.7 nM) | 17.9 ng/mL (≈ 48.3 nM) | – | – | – | –
C[C@H]1[C@@H](OCc2ccc(C(=O)O)cc2)O[C@@H]2OC3(C)CC[C@H]4[C@H](C)CC[C@@H]1[C@@]24OO3 (single isomer, unassigned) | 0.92 ng/mL (≈ 2.2 nM) | 1.74 ng/mL (≈ 4.16 nM) | – | – | – | –
COC(=O)CCCO[C@H]1O[C@@H]2OC3(C)CC[C@H]4[C@H](C)CC[C@@H]([C@H]1C)[C@@]24OO3 (single isomer, unassigned) | 0.95 ng/mL (≈ 2.47 nM) | 3.06 ng/mL (≈ 7.96 nM) | – | – | – | –
COC(=O)c1ccc(CO[C@H]2O[C@@H]3OC4(C)CC[C@H]5[C@H](C)CC[C@@H]([C@H]2C)[C@@]35OO4)cc1 (single isomer, unassigned) | 0.37 ng/mL (≈ 0.855 nM) | 0.77 ng/mL (≈ 1.78 nM) | – | – | – | –
COC(=O)CCO[C@H]1O[C@@H]2OC3(C)CC[C@H]4[C@H](C)CC[C@@H]([C@H]1C)[C@@]24OO3 (single isomer, unassigned) | 0.64 ng/mL (≈ 1.73 nM) | 1.84 ng/mL (≈ 4.97 nM) | – | – | – | –
C[C@H]1[C@@H](OCC(=O)O)O[C@@H]2OC3(C)CC[C@H]4[C@H](C)CC[C@@H]1[C@@]24OO3 (single isomer, unassigned) | 26.2 ng/mL (≈ 76.6 nM) | 53.8 ng/mL (≈ 157 nM) | – | – | – | –
C[C@H]1[C@@H](OCCCC(=O)O)O[C@@H]2OC3(C)CC[C@H]4[C@H](C)CC[C@@H]1[C@@]24OO3 (single isomer, unassigned) | 10.5 ng/mL (≈ 28.4 nM) | 75.5 ng/mL (≈ 204 nM) | – | – | – | –
CCOC(=O)CO[C@H]1O[C@@H]2OC3(C)CC[C@H]4[C@H](C)CC[C@@H]([C@H]1C)[C@@]24OO3 (single isomer, unassigned) | 0.26 ng/mL (≈ 0.702 nM) | 0.6 ng/mL (≈ 1.62 nM) | – | – | – | –
C[C@H]1[C@@H](OCCC(=O)O)O[C@@H]2OC3(C)CC[C@H]4[C@H](C)CC[C@@H]1[C@@]24OO3 (single isomer, unassigned; 7b) | 23.3 ng/mL (≈ 65.3 nM) | 85 ng/mL (≈ 239 nM) | – | – | – | –
C[C@H]1[C@@H](OCCC(=O)O)O[C@@H]2OC3(C)CC[C@H]4[C@H](C)CC[C@@H]1[C@@]24OO3 (single isomer, unassigned; 8b) | 35.6 ng/mL (≈ 100 nM) | 51.7 ng/mL (≈ 145 nM) | – | – | – | –
C[C@@H]1[C@H](OCc2ccc(C(=O)O)cc2)O[C@@H]2O[C@@]3(C)CC[C@@H]4[C@@H](C)CC[C@@H]1[C@]24OO3 [ARTELINIC ACID] | 1.38 ng/mL (≈ 3.3 nM) | 4.07 ng/mL (≈ 9.73 nM) | 5 | 5 | 5 | –
C[C@@H]1CC[C@H]2[C@@H](C)C(=O)O[C@@H]3O[C@@]4(C)CC[C@@H]1[C@]32OO4 [ARTEMISININ] | 0.66 ng/mL (≈ 2.34 nM) | 2.93 ng/mL (≈ 10.4 nM) | 5 | 5 | – | 3 and 2
C[C@H]1[C@H](OC(=O)CCC(=O)[O-])O[C@@H]2O[C@@]3(C)CC[C@H]4[C@H](C)CC[C@@H]1[C@@]24OO3.[Na+] [SODIUM ARESUNATE] | – | – | 5 | – | – | –
